Where two headings read alike, the source gives them in different places.
Key:
THP-1 ISG Luc cells = experiment: cells; assay type: cell-based; conditions: Homo sapiens, THP-1, 48 h, read-out: CTG IC50
[1] = system: TREX1 KO THP-1 ISG Luc cells; experiment: cells; assay type: cell-based; conditions: Homo sapiens, cell viability, 48 h, read-out: CTG IC50
cGAS = cGAS (Homo sapiens, UniProt Q8N884); experiment: cell-based
[2] = system: TREX1 KO THP-1 ISG Luc cells; experiment: cells; assay type: cell-based; conditions: Homo sapiens, 48 h, read-out: ISRE-Luc IC50

Chain of cGAS (Q8N884 whole entry): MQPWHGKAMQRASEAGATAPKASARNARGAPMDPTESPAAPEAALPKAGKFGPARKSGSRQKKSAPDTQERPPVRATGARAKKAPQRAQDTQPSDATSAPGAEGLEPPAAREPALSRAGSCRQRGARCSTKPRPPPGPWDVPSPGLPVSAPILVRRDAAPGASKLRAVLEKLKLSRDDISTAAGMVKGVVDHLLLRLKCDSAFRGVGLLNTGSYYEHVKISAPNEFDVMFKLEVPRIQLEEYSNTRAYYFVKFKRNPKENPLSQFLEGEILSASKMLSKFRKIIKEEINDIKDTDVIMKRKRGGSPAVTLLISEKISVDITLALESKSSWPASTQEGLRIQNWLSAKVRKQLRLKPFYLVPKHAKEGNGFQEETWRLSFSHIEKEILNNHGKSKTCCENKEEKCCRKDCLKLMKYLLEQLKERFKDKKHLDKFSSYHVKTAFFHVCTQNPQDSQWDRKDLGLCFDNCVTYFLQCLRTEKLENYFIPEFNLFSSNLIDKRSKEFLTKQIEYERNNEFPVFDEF

## Nc1cc(C2CCN(C(=O)c3cc4ccccc4[nH]3)CC2)no1 [Compound 2, (4-(5-aminoisoxazol-3-yl)piperidin-1-yl)(1H-indol-2-yl)methanone]
THP-1 ISG Luc cells
  IC50: > 10 µM
[1]
  IC50: > 10 µM
cGAS
  IC50: 890 nM
[2]
  IC50: 950 nM
